In patent publication US20230072683A1, “PYRIDO-PYRIMIDIN DERIVATIVES AND PHARMACEUTICAL COMPOSITION, FOR USE IN PREVENTING OR TREATING PI3 KINASE RELATED DISEASES, COMPRISING SAME AS ACTIVE INGREDIENT” (BORYUNG PHARMACEUTICAL CO., LTD, priority 2019, published 2023):

How the values were obtained:
[1] = target: PI3K-δ (PI3K(p1108/p857) (h)) (Homo sapiens, UniProt O00329); experiment: Evaluation of inhibitory activity against PI3K-δ (HTRF kinase assay); assay type: biochemical; settings: for inhibition at 0.1 µM: compound at 0.1 μM, read-out: EXP_VALUE(% Inhibition) PI3K-δ 0.1 μM
How it was run: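 HTRF read-out (665/620 nm ratio ×10000) used Eu-labelled anti-GST, GST-tagged GRP1 PH domain and streptavidin-allophycocyanin after EDTA/PIP3 stop.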

[2] = target: DNA-PK(h) (Homo sapiens, UniProt P78527); experiment: Evaluation of inhibitory activity against DNA-PK (HTRF kinase assay, GST-cMyc-p53 substrate); assay type: biochemical; settings: for inhibition at 0.1 µM: compound at 0.1 μM, read-out: EXP_VALUE(% Inhibition) DNA-PK(h) 0.1 μM
How it was run: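 p53 Ser15 phosphorylation by human DNA-PK was measured by time-resolved FRET ratio (665/620 nm ×10000) using Eu-labelled anti-phospho-Ser15 and d2 anti-GST antibodies. Substrate GST-cMyc-p53 at 50 μM; Mg/ATP-initiated, 30 min at room temperature, EDTA stop.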

Sequence of PI3K-δ (PI3K(p1108/p857) (h)) (O00329 whole entry, the tested form may be a part): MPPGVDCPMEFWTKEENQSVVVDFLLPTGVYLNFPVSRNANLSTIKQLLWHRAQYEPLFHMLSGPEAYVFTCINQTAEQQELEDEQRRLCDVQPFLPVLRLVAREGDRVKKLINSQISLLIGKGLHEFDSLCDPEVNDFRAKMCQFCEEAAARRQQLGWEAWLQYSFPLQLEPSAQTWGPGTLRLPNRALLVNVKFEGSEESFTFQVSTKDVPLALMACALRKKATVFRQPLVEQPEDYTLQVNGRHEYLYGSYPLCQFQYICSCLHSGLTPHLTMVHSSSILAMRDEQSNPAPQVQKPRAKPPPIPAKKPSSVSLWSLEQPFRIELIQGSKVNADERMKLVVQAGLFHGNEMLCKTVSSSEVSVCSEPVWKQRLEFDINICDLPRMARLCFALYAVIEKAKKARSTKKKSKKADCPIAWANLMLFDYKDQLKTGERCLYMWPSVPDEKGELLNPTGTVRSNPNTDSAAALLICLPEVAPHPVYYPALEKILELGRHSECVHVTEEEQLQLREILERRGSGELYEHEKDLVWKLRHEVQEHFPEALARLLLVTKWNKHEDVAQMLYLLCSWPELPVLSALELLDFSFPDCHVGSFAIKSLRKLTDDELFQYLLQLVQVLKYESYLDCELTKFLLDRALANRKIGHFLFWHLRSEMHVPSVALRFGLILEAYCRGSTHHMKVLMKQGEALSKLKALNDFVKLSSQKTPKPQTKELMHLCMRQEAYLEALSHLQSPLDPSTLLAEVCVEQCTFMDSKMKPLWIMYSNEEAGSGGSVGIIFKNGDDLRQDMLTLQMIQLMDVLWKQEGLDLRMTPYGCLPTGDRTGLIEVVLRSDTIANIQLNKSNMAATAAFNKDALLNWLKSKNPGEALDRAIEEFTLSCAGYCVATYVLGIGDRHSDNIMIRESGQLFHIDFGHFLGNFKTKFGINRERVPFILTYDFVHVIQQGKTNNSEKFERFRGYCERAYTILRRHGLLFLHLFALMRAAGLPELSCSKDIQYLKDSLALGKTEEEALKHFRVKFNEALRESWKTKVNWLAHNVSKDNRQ
Sequence of PI3K-δ (PI3K(p1108/p857) (h)) (P27986 whole entry partner, the tested form may be a part): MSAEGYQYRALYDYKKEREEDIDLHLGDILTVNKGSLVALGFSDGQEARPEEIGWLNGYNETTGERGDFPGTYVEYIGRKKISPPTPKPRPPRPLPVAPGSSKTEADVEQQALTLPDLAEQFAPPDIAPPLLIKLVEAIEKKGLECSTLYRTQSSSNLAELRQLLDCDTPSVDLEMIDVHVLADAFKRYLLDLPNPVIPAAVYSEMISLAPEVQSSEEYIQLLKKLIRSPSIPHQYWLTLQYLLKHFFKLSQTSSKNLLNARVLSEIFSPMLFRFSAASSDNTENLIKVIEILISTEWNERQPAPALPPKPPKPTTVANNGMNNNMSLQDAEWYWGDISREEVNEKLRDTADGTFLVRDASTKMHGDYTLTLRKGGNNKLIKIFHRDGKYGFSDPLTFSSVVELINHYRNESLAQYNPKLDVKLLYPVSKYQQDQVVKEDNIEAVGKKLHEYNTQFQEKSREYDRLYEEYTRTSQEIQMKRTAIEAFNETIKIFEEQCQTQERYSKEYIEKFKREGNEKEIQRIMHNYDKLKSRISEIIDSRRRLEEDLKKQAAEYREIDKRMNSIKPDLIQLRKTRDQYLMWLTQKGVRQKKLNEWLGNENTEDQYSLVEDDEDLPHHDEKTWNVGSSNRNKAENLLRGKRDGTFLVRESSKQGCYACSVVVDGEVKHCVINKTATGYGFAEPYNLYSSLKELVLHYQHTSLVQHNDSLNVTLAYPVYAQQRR

| Structure (SMILES) | inhibition at 0.1 µM [1] | inhibition at 0.1 µM [2] | inhibition at 0.01 µM ([1]; compound at 0.01 μM, read-out: EXP_VALUE(% Inhibition) PI3K-δ 0.01 μM) | inhibition at 0.01 µM ([2]; compound at 0.01 μM, read-out: EXP_VALUE(% Inhibition) DNA-PK(h) 0.01 μM) |
| --- | --- | --- | --- | --- |
| C[C@H](Nc1ncnc2[nH]ccc(=O)c12)c1c(Cl)c2cccc(-c3cnc(C4(O)CCC4)nc3)c2c(=O)n1-c1ccccc1 [Example 438, (S)-4-((1-(4-chloro-8-(2-(1-hydroxycyclobutyl)pyrimidin-5-yl)-1-oxo-2-phenyl-1,2-dihydroisoquinolin-3-yl)ethyl)amino)pyrido[2,3-d]pyrimidin-5(8H)-one] | 87% | 64% | – | – |
| C[C@H](Nc1ncnc2[nH]ccc(=O)c12)c1c(Cl)c2cccc(C(=O)NCc3ccncc3)c2c(=O)n1-c1ccccc1 [Example 439, (S)-4-chloro-1-oxo-3-(1-((5-oxo-5,8-dihydropyrido[2,3-d]pyrimidin-4-yl)amino)ethyl)-2-phenyl-N-(pyridin-4-ylmethyl)-1,2-dihydroisoquinoline-8-carboxamide] | 92% | 16% | – | – |
| C[C@H](Nc1ncnc2[nH]ccc(=O)c12)c1c(Cl)c2cccc(C(=O)Nc3ccccc3)c2c(=O)n1-c1ccccc1 [Example 440, (S)-4-chloro-1-oxo-3-(1-((5-oxo-5,8-dihydropyrido[2,3-d]pyrimidin-4-yl)amino)ethyl)-N, 2-diphenyl-1,2-dihydroisoquinoline-8-carboxamide] | 92% | 16% | – | – |
| C[C@H](O)c1cccc2c(Cl)c([C@H](C)Nc3ncnc4[nH]ccc(=O)c34)n(-c3ccccc3)c(=O)c12 [Example 441, 4-(((S)-1-(4-chloro-8-((S)-1-hydroxyethyl)-1-oxo-2-phenyl-1,2-dihydroisoquinolin-3-yl)ethyl)amino)pyrido[2,3-d]pyrimidin-5(8H)-one] | – | – | 54% | 35% |
